ChEMBL document CHEMBL3865802, “Natural product-inspired rational design, synthesis and biological evaluation of 2,3-dihydropyrano[2,3-f]chromen-4(8H)-one based hybrids as potential mitochondrial apoptosis inducers” (Eur J Med Chem, 2016)
Calls of active or inactive are those of the source. The rule behind the calls is not given here.

Tests used:
MCF7 [1] = test: Induction of apoptosis in human MCF7 cells at antiproliferative IC50 assessed as late apoptotic cells after 48 hrs by AO/EB dual staining-based fluorescent microscopic analysis; assay type: functional, cell-based
MCF7 [2] = test: Induction of apoptosis in human MCF7 cells assessed as increase in number of abnormal cells at antiproliferative IC50 by hoechst 33258 staining-based fluorescent microscopic analysis; assay type: functional, cell-based; details: TDE = time-dependent effect
MCF7 [3] = test: Induction of apoptosis in human MCF7 cells assessed as DNA fragmentation at antiproliferative IC50 after 24 hrs by ethidium bromide staining based agarose gel electrophoresis method; assay type: functional, cell-based
MCF7 [4] = test: Induction of apoptosis in human MCF7 cells assessed as plasma membrane blebbing at antiproliferative IC50 after 48 hrs by hoechst 33258 staining-based fluorescent microscopic analysis; assay type: functional, cell-based
[5] = Downregulation of Bcl2 protein expression in human MCF7 cells at antiproliferative IC50 after 24 hrs by Western blot analysis; assay type: functional, cell-based
MCF7 [6] = test: Induction of apoptosis in human MCF7 cells assessed as morphological changes at antiproliferative IC50 by AO/EB dual staining-based fluorescent microscopic analysis; assay type: functional, cell-based; details: TDE = time-dependent effect
[7] = Cytotoxicity against human MCF7 cells assessed as cell growth inhibition after 24 hrs by MTT assay; assay type: functional, cell-based; details: MCF7, 24 h
[8] = Upregulation of Bax protein expression in human MCF7 cells at antiproliferative IC50 after 24 hrs by Western blot analysis; assay type: functional, cell-based
[9] = Cytotoxicity against human HeLa cells assessed as cell growth inhibition after 24 hrs by MTT assay; assay type: functional, cell-based
MCF7 [10] = test: Induction of apoptosis in human MCF7 cells assessed as cytoskeleton breakdown at antiproliferative IC50 after 48 hrs by hoechst 33258 staining-based fluorescent microscopic analysis; assay type: functional, cell-based
[11] = Hemolytic activity against human RBC at 28.7 uM after 4 hrs; assay type: ADME, cell-based; details: erythrocyte
MCF7 [12] = test: Induction of apoptosis in human MCF7 cells assessed as fragmented nuclei at antiproliferative IC50 after 24 hrs by hoechst 33258 staining-based fluorescent microscopic analysis; assay type: functional, cell-based
MCF7 [13] = test: Induction of apoptosis in human MCF7 cells assessed as chromatin condensation at antiproliferative IC50 after 24 hrs by hoechst 33258 staining-based fluorescent microscopic analysis; assay type: functional, cell-based
[14] = Cytotoxicity against human A549 cells assessed as cell growth inhibition after 24 hrs by MTT assay; assay type: functional, cell-based; details: A549, 24 h
MCF7 [15] = test: Induction of apoptosis in human MCF7 cells assessed as presence of apoptotic bodies at antiproliferative IC50 after 24 hrs by hoechst 33258 staining-based fluorescent microscopic analysis; assay type: functional, cell-based
MCF7 [16] = test: Induction of apoptosis in human MCF7 cells assessed as early apoptotic cells at antiproliferative IC50 after 24 hrs by AO/EB dual staining-based fluorescent microscopic analysis; assay type: functional, cell-based
[17] = Hemolytic activity against human RBC at 31.2 uM after 4 hrs; assay type: ADME, cell-based; details: erythrocyte
MCF7 [18] = test: Induction of mitochondrial membrane potential loss in human MCF7 cells assessed as accumulation of cells at upper right quadrant at 26.2 uM after 48 hrs by JC-1 staining-based fluorescent microscopic analysis (reference value: 0.2 %); assay type: functional
[19] = Downregulation of Bcl2 mRNA expression in human MCF7 cells assessed as Bcl2 mRNA expression level at antiproliferative IC50 after 24 hrs by RT-qPCR analysis relative to control; assay type: functional, cell-based
MCF7 [20] = test: Induction of mitochondrial membrane potential depolarization in human MCF7 cells assessed as increase in green fluorescence at 26.2 uM after 24 to 48 hrs by JC-1 staining-based fluorescent microscopic analysis; assay type: functional, cell-based
[21] = Downregulation of Bcl2 mRNA expression in human MCF7 cells assessed as Bcl2 mRNA expression level at antiproliferative IC50 after 48 hrs by RT-qPCR analysis relative to control; assay type: functional, cell-based
MCF7 [22] = test: Induction of mitochondrial membrane potential loss in human MCF7 cells assessed as accumulation of cells at lower right quadrant at 26.2 uM after 48 hrs by JC-1 staining-based fluorescent microscopic analysis (reference value: 0.1 %); assay type: functional
[23] = Hemolytic activity against human RBC at 26.2 uM after 4 hrs; assay type: ADME, cell-based; details: erythrocyte
[24] = Downregulation of Bcl2 mRNA expression in human MCF7 cells assessed as Bcl2 mRNA expression level at antiproliferative IC50 after 12 hrs by RT-qPCR analysis relative to control; assay type: functional, cell-based
MCF7 [25] = test: Induction of mitochondrial membrane potential depolarization in human MCF7 cells assessed as increase in green fluorescence at 14.3 uM after 24 to 48 hrs by JC-1 staining-based fluorescent microscopic analysis; assay type: functional, cell-based
[26] = Hemolytic activity against human RBC at 14.36 uM after 4 hrs; assay type: ADME, cell-based; details: erythrocyte
MCF7 [27] = test: Induction of mitochondrial membrane potential loss in human MCF7 cells assessed as accumulation of cells at lower right quadrant at 14.3 uM after 48 hrs by JC-1 staining-based fluorescent microscopic analysis (reference value: 0.1 %); assay type: functional
MCF7 [28] = test: Induction of mitochondrial membrane potential loss in human MCF7 cells assessed as accumulation of cells at upper right quadrant at 14.3 uM after 48 hrs by JC-1 staining-based fluorescent microscopic analysis (reference value: 0.2 %); assay type: functional

Compound	Activity (MCF7 [1])	Activity (MCF7 [2])	Activity (MCF7 [3])	Activity (MCF7 [4])	Activity [5]	Activity (MCF7 [6])	IC50 [7] [µM]	Activity [8]	IC50 [9] [µM]	Activity (MCF7 [10])	Activity (MCF7 [12])	Activity (MCF7 [13])	IC50 [14] [µM]	Activity (MCF7 [15])	Activity (MCF7 [16])	further results
CC1Oc2c(cc(C(=O)Nc3cccnc3)c3c2C=CC(C)(C)O3)C(=O)C1C (stereo unspecified)	Active	Tde	Active	Active	Active	Tde	28.7	Active	41.2	Active	Active	Active	26.9	Active	Active	Activity [11]: Non-Toxic
CC1Oc2c(cc(C(=O)Nc3nnc(-c4ccncc4)s3)c3c2C=CC(C)(C)O3)C(=O)C1C (stereo unspecified)	–	–	–	–	–	–	57.9	–	74.3	–	–	–	75	–	–	–
COc1cc(-c2nnc(NC(=O)c3cc4c(c5c3OC(C)(C)C=C5)OC(C)C(C)C4=O)s2)cc(OC)c1OC (stereo unspecified)	–	–	–	–	–	–	70	–	97.8	–	–	–	79.3	–	–	–
CC1Oc2c(cc(C(=O)Nc3nnc(-c4ccccc4)s3)c3c2C=CC(C)(C)O3)C(=O)C1C (stereo unspecified)	–	–	–	–	–	–	37.8	–	40.2	–	–	–	32.4	–	–	–
CC1Oc2c(cc(C(=O)Nc3nnc(-c4ccc([N+](=O)[O-])cc4)s3)c3c2C=CC(C)(C)O3)C(=O)C1C (stereo unspecified)	Active	Tde	Active	Active	Active	Tde	31.2	Active	42.9	Active	Active	Active	42.3	Active	Active	Activity [17]: Non-Toxic
c1ccc([C@H]2CN3CCSC3=N2)cc1 [LEVAMISOLE]	–	–	–	–	–	–	> 100	–	96	–	–	–	> 100	–	–	–
CC1Oc2c(cc(C(=O)O)c3c2C=CC(C)(C)O3)C(=O)C1C (stereo unspecified)	–	–	–	–	–	–	88.7	–	102	–	–	–	116	–	–	–
COc1cc2c(cc1OC)[C@@H]1C(=O)c3ccc4c(c3O[C@@H]1CO2)C=CC(C)(C)O4 [DEGUELIN]	–	–	–	–	–	–	10.6	–	–	–	–	–	–	–	–	–
CC1Oc2c(cc(C(=O)Nc3ccncc3)c3c2C=CC(C)(C)O3)C(=O)C1C (stereo unspecified)	Active	Tde	Active	Active	Active	Tde	26.2	Active	28.6	Active	Active	Active	39.3	Active	Active	Activity (MCF7 [18]): 79.8%; Activity [19]: 64%; Activity (MCF7 [20]): Active; Activity [21]: 57%; Activity (MCF7 [22]): 20.2%; Activity [23]: Non-Toxic; Activity [24]: 92.2%
CC1Oc2c(cc(C(=O)Nc3nnc(-c4cccs4)s3)c3c2C=CC(C)(C)O3)C(=O)C1C (stereo unspecified)	–	–	–	–	–	–	78.2	–	92.8	–	–	–	74.5	–	–	–
Cc1ccc(-c2nnc(NC(=O)c3cc4c(c5c3OC(C)(C)C=C5)OC(C)C(C)C4=O)s2)cc1 (stereo unspecified)	Active	Tde	Active	Active	Active	Tde	14.3	Active	25.2	Active	Active	Active	20.2	Active	Active	Activity (MCF7 [25]): Active; Activity [26]: Non-Toxic; Activity [19]: 46%; Activity (MCF7 [27]): 13.7%; Activity [21]: 39.7%; Activity (MCF7 [28]): 86.3%; Activity [24]: 82.7%
CC1Oc2c(cc(C(=O)Nc3cccc4ccccc34)c3c2C=CC(C)(C)O3)C(=O)C1C (stereo unspecified)	–	–	–	–	–	–	48.1	–	41.7	–	–	–	58.1	–	–	–
CC1Oc2c(cc(C(=O)Nc3nccs3)c3c2C=CC(C)(C)O3)C(=O)C1C (stereo unspecified)	–	–	–	–	–	–	75	–	84	–	–	–	64.4	–	–	–
